Legend:
Format in all cases: cell-based
PTGER4 (EP4) = biological target: T1, PTGER4 (EP4) (Homo sapiens, UniProt P35408); assay: hEP4 b-arrestin assay (PathHunter HEK 293 PTGER4 b-arrestin cells); conditions: antagonistic activity, beta-arrestin assay; read-out: hEP4 b-arr IC50
T1 construct: host or cells: HEK 293 (PathHunter PTGER4 b-arrestin cell line)
Experimental: (§1) The antagonistic activities of the compounds of formula (I) on the EP2 and EP4 receptors are determined in accordance with the following experimental method.
(§2) The assay is using the PathHunter™ HEK 293 PTGER2 and PTGER4 b-arrestin cell lines from DiscoverX. The system is based on the Enzyme Fragment Complementation Technology. Two complementing fragments of the b-galactosidase enzyme are expressed within stably transfected cells. The larger portion of b-gal, termed EA for Enzyme Acceptor, is fused to the C-terminus of b-arrestin 2. The smaller fragment, termed ProLink™ tag, is fused to PTGER2 (EP2) or PTRGER4 (EP4) at the C-terminus. Upon activation, b-arrestin is recruited which forces the interaction of ProLink and EA, allowing complementation of the two fragments of b-gal and the formation of a functional enzyme which is capable of hydrolysing the substrate and generating a chemiluminescent signal.
(§3) The HEK 293 PTGER4 b-arrestin cells (DiscoverX 93-030-4C1) are detached from culture dishes with a cell dissociation buffer (Invitrogen, 13151-014), and collected in growing medium (GM: DMEM+Glutamax-I (Invitrogen 32430)/10% FCS, 1% Penicilin/streptomycin). 5000 cells per well of a 384 well plate (white with white bottom Greiner 781080) are seeded in 20 ul per well of GM. Plate is incubated at 37° C., 5% C02 for 24 hours.
(§4) Stock solutions of test compounds are made at a concentration of 10 mM in DMSO, and serially diluted in DMSO to concentrations required for inhibition dose response curves (tested concentration range 10 μM-2 nM or 1 μM-0.2 nM).
PGE2 (Cayman 14010, stock solution: 100 uM in DMSO) is used as agonist at 20 nM final concentration, corresponding to EC80.
Five microliters of diluted compounds are transferred into the assay plate. Plate is pre-incubated 15 minutes at 37° C. Then five microliters of PGE2 (final conc. 20 nM) are transferred into the assay plate. Plate is incubated 120 minutes at 37° C.
(§5) PathHunter Glo Detection Kit components are thawed and mix according to manufacturer's instructions: 1 part Galacton Star Substrate with 5 parts Emerald II™ Solution, and 19 parts of PathHunter Cell Assay Buffer, respectively. Twelve μl of reagent are transferred to the assay plate and incubate for 1 hour at room temperature in the dark. Luminescence counts are read on a BMG Fluostar Optima reader according to manufacturer's instructions.
(§6) For each compound concentration calculate of the percentage of activity compared to DMSO control value as average±STDEV. (each concentration is measured in duplicate)
(§7) IC50 values and curves are generated with XLfit software (IDBS) using Dose-Response One Site model 203. When compounds were measured multiple times, mean values are given.

PTGER2 (EP2) = biological target: T2, PTGER2 (EP2) (Homo sapiens, UniProt P43116); assay: hEP2 b-arrestin assay (PathHunter HEK 293 PTGER2 b-arrestin cells); conditions: antagonistic activity, beta-arrestin assay; read-out: hEP2 b-arr IC50
T2 construct: host or cells: HEK 293 (PathHunter PTGER2 b-arrestin cell line)
Experimental: as §1, §2
as §3, with “PTGER2” for “PTGER4”, “93-021-4C1)” for “93-030-4C1)”
as §4
PGE2 (Cayman 14010, stock solution: 10 mM in DMSO) is used as agonist at 5 μM final concentration, corresponding to EC80.
Five microliters of diluted compounds are transferred into the assay plate. Plate is pre-incubated 15 minutes at 37° C. Then five microliters of PGE2 (final conc. 5 μM) are transferred into the assay plate. Plate is incubated 120 minutes at 37° C.
as §5, §6, §7

EP2 receptor = biological target: T3, EP2 receptor (Homo sapiens, UniProt P43116); assay: hEP2 cAMP assay (SF295 glioblastoma cells, HTRF cAMP, PGE2 stimulation); conditions: antagonistic activity
T3 construct: SF295 glioblastoma cells express high endogenous EP2 and no EP4; host or cells: SF295 glioblastoma cells
Experimental: The antagonistic activities of the compounds of formula (I) on the EP2 and EP4 receptors are also determined in accordance with the following experimental method.
Human tumor cell lines expressing endogenously either EP4 or EP2 are used and cAMP accumulation in cells upon PGE2 stimulation is monitored. SF295 glioblastoma cells express high endogenous EP2 and no EP4, whereas BT549 breast cancer cells, express high endogenous EP4 levels and very low EP2 levels.
As a detection method for cAMP the HTRF (homogeneous time resolved fluorescence) Cisbio kit (HTRF cAMP dynamic 2 kit 20′000 tests Cisbio Cat. #62AM4PEC) was used, which is based on a competitive immunoassay using a Cryptate-labeled anti-cAMP antibody and d2-labeled cAMP. Native cAMP produced by cells or unlabeled cAMP (for the standard curve) compete with exogenously added d2-labeled cAMP (acceptor) for binding to monoclonal anti-cAMP-Eu3+ Cryptate (donor). A FRET signal (Fluorescence Resonance Energy Transfer) is obtained only if the labeled anti-cAMP antibody binds the d2 labelled cAMP, thus the specific signal (i.e. energy transfer) is inversely proportional to the concentration of cAMP in the standard or sample.
The SF295 cells (NCI/No. 0503170) are detached from culture dishes with a cell dissociation buffer (Invitrogen, 13151-014), and collected in growing medium (GM: RPM1640 (Invitrogen 21875)/10% FCS, 1% Penicilin/streptomycin). Cells are counted washed and resuspended in assay buffer (AB; HBSS, 20 mM HEPES, 0.2% BSA; 2 mM IBMX). 4′000 cells in 5 μl of AB are seeded per well of a small volume 384 well plate (black with flat bottom, Greiner 784076).
Stock solutions of test compounds are made at a concentration of 10 mM in DMSO, and serially diluted in DMSO to concentrations required for inhibition dose response curves (tested concentration range 30 μM-0.4 nM; 30 μM-0.015 nM or 1 μM-0.01 nM).
PGE2 (Cayman 14010, stock solution: 75 μM in DMSO) is used as agonist at 75 nM final concentration, corresponding to EC80.
Two point five microliters of diluted compounds are transferred into the assay plate. Plate is pre-incubated 45 minutes at room temperature. Subsequently, 2.5 microliters of PGE2 (final conc. 75 nM) are transferred into the assay plate. Plate is incubated 30 minutes at room temperature. Five μl of each donor (anti-cAMP cryptate) and acceptor (cAMP-d2) are added and the plate is incubated another hour at room temperature in the dark and then read using a BMG LABTECH PHERAstar reader (Excitation: 337 nm, Emission: 620 and 665 nm).
The obtained Delta F (fluorescence) values (665 nm/620 nM) are converted into % cAMP values using the measurements of the cAMP calibrator provided in the kit. For each compound concentration the percentage of cAMP compared to DMSO control value as average±STDEV (each concentration is measured in duplicate) is calculated.
as §7

T1 sequence (P35408 whole entry): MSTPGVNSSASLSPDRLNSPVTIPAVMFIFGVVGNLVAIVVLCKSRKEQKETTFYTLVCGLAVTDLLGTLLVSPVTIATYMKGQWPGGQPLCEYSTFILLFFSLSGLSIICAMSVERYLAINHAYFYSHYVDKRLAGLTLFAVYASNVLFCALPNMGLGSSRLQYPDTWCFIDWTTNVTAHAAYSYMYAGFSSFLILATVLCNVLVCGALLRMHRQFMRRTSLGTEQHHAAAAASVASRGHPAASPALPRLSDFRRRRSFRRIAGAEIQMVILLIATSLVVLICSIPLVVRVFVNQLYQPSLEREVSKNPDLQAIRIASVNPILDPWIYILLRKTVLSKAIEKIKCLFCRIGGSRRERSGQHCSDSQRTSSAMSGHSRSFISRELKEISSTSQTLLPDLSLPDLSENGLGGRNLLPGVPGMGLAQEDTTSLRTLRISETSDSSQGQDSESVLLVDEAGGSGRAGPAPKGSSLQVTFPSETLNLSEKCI
T3 sequence (P43116 whole entry): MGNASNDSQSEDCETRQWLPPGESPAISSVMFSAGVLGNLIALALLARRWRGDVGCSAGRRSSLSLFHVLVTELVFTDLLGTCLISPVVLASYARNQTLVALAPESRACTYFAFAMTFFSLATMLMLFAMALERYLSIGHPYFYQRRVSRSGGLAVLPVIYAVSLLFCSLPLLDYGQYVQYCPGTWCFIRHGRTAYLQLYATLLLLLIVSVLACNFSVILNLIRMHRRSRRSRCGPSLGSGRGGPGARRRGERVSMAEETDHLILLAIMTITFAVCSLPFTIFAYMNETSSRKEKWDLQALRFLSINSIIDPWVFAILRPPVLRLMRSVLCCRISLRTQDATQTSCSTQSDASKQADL
T2 sequence (P43116 whole entry): as above

| IC50 (PTGER4 (EP4)) | IC50 (PTGER2 (EP2)) | IC50 (EP2 receptor) | SMILES |
| --- | --- | --- | --- |
| 3490 nM | 10 nM | 1 nM | CSc1cc(-c2cc(NCCc3c(C)oc4ccccc34)ncn2)cc(Cl)c1C(=O)O [Example 51, 2-Chloro-4-{6-[2-(2-methyl-benzofuran-3-yl)-ethylamino]-pyrimidin-4-yl}-6-methylsulfanyl-benzoic acid] |
| 3380 nM | 5 nM | 2 nM | CSc1cc(-c2cc(NCCc3c(C)sc4ccccc34)ncn2)cc(F)c1C(=O)O [Example 48, 2-Fluoro-4-{6-[2-(2-methyl-benzo[b]thiophen-3-yl)-ethylamino]-pyrimidin-4-yl}-6-methylsulfanyl-benzoic acid] |
| 3500 nM | 5 nM | 4 nM | CCOc1cc(-c2cc(NCCc3c(C)oc4ccccc34)ncn2)ccc1C(=O)O [Example 73, 2-Ethoxy-4-{6-[2-(2-methyl-benzofuran-3-yl)-ethylamino]-pyrimidin-4-yl}-benzoic acid] |
| 3090 nM | 99 nM | 71 nM | Cc1sc2c(Cl)ccc(Cl)c2c1CCNc1cc(-c2ccc(C(=O)O)c(O)c2)ncn1 [Example 11, 4-{6-[2-(4,7-Dichloro-2-methyl-benzo[b]thiophen-3-yl)-ethylamino]-pyrimidin-4-yl}-2-hydroxy-benzoic acid] |
| 146 nM | 85 nM | – | CCc1cc(-c2cc(NCCc3c(C)sc4c(C)cc(F)cc34)ncn2)sc1CC(=O)O [Example 197, (3-Ethyl-5-{6-[2-(5-fluoro-2,7-dimethyl-benzo[b]thiophen-3-yl)-ethylamino]-pyrimidin-4-yl}-thiophen-2-yl)-acetic acid] |
| 837 nM | 62 nM | – | CCCc1cc(-c2cc(NCCc3c(C)sc4c(C)cc(F)cc34)ncn2)ccc1C(=O)NCCOC [Example 208, 4-{6-[2-(5-Fluoro-2,7-dimethyl-benzo[b]thiophen-3-yl)-ethylamino]-pyrimidin-4-yl}-N-(2-methoxy-ethyl)-2-propyl-benzamide] |
| 407 nM | 44 nM | – | Cc1sc2c(C)cc(F)cc2c1CCNc1cc(-c2cc(OC(F)F)c(CC(=O)O)s2)ncn1 [Example 220, (3-Difluoromethoxy-5-{6-[2-(5-fluoro-2,7-dimethyl-benzo[b]thiophen-3-yl)-ethylamino]-pyrimidin-4-yl}-thiophen-2-yl)-acetic acid] |
| 184 nM | 8 nM | – | CCSc1cc(-c2cc(NCCc3c(C)sc4c(C)cc(F)cc34)ncn2)ccc1C(=O)O [Example 179, 2-Ethylsulfanyl-4-{6-[2-(5-fluoro-2,7-dimethyl-benzo[b]thiophen-3-yl)-ethylamino]-pyrimidin-4-yl}-benzoic acid] |
| 120 nM | 20 nM | – | Cc1sc2c(C)cc(F)cc2c1CCNc1cc(-c2ccc(-c3c(O)c(=O)c3=O)cc2)ncn1 [Example 180, 3-(4-{6-[2-(5-Fluoro-2,7-dimethyl-benzo[b]thiophen-3-yl)-ethylamino]-pyrimidin-4-yl}-phenyl)-4-hydroxy-cyclobut-3-ene-1,2-dione] |
| 234 nM | 41 nM | – | CCOc1c(CC(=O)O)ccc(-c2cc(NCCc3c(C)sc4c(C)cc(F)cc34)ncn2)c1F [Example 216, (2-Ethoxy-3-fluoro-4-{6-[2-(5-fluoro-2,7-dimethyl-benzo[b]thiophen-3-yl)-ethylamino]-pyrimidin-4-yl}-phenyl)-acetic acid] |
| 3620 nM | 2 nM | 1 nM | CSc1cc(-c2cc(NCCc3c(C)oc4ccccc34)ncn2)cc(F)c1C(=O)O [Example 49, 2-Fluoro-4-{6-[2-(2-methyl-benzofuran-3-yl)-ethylamino]-pyrimidin-4-yl}-6-methylsulfanyl-benzoic acid] |
| 1030 nM | 108 nM | – | Cc1sc2c(C)cc(F)cc2c1CCNc1cc(-c2ccc(/C=C/C(=O)O)cc2)ncn1 [Example 204, (E)-3-(4-{6-[2-(5-Fluoro-2,7-dimethyl-benzo[b]thiophen-3-yl)-ethylamino]-pyrimidin-4-yl}-phenyl)-acrylic acid] |

Source: US11325899B2, “Benzofurane and benzothiophene derivatives as PGE2 receptor modulators” (IDORSIA PHARMACEUTICALS LTD, priority 2017, dated 2022)
